The values that follow are results of earlier work, collected in patent US12285413B2 (priority 2020, dated 2025).

Data set [1] has as its system SARS-CoV. To be noted: multiple in vitro systems, including primary human airway epithelial cell cultures.
Data set [2] has as its system SARS-CoV. To be noted: mouse, prophylactic and early therapeutic administration.
The subject of the next data set is MERS-CoV. The note with it: multiple in vitro systems, including primary human airway epithelial cell cultures.
In another data set the target is glucocorticoid receptor (Homo sapiens, UniProt P04150). The note with it: relative to cortisol.
Chain of glucocorticoid receptor (P04150 whole entry): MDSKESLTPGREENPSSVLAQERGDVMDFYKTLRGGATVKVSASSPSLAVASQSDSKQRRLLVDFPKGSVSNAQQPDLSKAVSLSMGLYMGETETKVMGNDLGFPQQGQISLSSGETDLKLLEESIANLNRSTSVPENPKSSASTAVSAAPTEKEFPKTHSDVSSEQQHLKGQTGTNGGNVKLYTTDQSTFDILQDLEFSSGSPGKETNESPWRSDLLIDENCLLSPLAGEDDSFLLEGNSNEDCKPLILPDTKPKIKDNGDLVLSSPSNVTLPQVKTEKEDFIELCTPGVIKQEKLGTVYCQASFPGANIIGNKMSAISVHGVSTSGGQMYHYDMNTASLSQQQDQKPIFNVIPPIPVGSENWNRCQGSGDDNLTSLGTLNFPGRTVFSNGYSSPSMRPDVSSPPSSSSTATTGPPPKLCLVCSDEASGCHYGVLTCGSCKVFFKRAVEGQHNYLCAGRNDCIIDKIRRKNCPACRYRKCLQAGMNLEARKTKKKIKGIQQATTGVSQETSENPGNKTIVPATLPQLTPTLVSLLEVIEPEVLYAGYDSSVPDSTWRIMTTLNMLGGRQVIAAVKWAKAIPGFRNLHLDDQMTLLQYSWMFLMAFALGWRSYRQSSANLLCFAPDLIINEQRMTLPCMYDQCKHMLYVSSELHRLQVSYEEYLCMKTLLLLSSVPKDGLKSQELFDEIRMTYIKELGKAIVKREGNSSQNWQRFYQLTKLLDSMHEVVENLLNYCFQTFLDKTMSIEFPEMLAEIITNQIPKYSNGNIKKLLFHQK

For `CCN(CCO)CCCC(C)Nc1ccnc2cc(Cl)ccc12` (stereo not shown) [Hydroxychloroquine], the “effect on coronavirus replication in in-vitro systems” value with coronavirus was “inhibitory effects”.

Consider `CCC(CC)COC(=O)[C@H](C)N[P@](=O)(OC[C@H]1O[C@@](C#N)(c2ccc3c(N)ncnn23)[C@H](O)[C@@H]1O)Oc1ccccc1` [Remdesivir], for which the “EC50, inhibition of SARS-CoV replication” value in the data set on SARS-CoV [1] is listed as “submicromolar”. Also, the “antiviral activity in SARS-CoV-2 in-vitro models” value with SARS-CoV-2 is given as “antiviral activity”. In addition, in the data set on SARS-CoV [2], the lung viral load result is reported as “reduced lung viral load” and the respiratory function entry is “improved respiratory function”. Also, the “EC50, inhibition of MERS-CoV replication” value in the data set on MERS-CoV is on record as “submicromolar”.

Take `C[C@@H]1C[C@H]2[C@@H]3CCC4=CC(=O)C=C[C@]4(C)[C@@]3(F)[C@@H](O)C[C@]2(C)[C@@]1(O)C(=O)CO` [dexamethasone]: the “anti-inflammatory and immunosuppressive potency versus cortisol” value on glucocorticoid receptor is “approximately 30 times”.
